This note sets out measurements from ChEMBL document CHEMBL4834448, “Toward the assembly and characterization of an encoded library hit confirmation platform: Bead-Assisted Ligand Isolation Mass Spectrometry (BALI-MS)” (Bioorg Med Chem, 2021).

The structures appear in SMILES notation.

The test deals with Bromodomain-containing protein 4 (Homo sapiens, UniProt O60885). The test can be described thus: Displacement of Alexafluor 647-conjugated PFI-1 from N-terminal-His6-tagged human BRD4 BD1 domain (44 to 170 residues) incubated for 30 mins by fluorescence polarization assay.

Take `CNCCN(C)c1ccc2nnc(C)n2n1`: the IC50 – broadly, the concentration at which inhibition is half-maximal – was greater than 30000 nM.

As for `CN(C[C@H]1CC[C@H](N)CC1)c1ccc2nncn2n1`, the concentration for half-maximal inhibition (IC50) amounted to 11800 nM. Compound `CCc1nnc2ccc(N(C)C[C@H]3CC[C@H](N)CC3)nn12` returned an IC50 of 790 nM. The compound `Cc1nnc2ccc(N(C)CCC3CCNCC3)nn12` showed an IC50 of 2420 nM. Compared with the last compound, the IC50 is about 3.1-fold higher.
